{"source": "paper PMC6332354", "about": "(Molecules, 2015)", "key": {"rat ACC2": {"biological_target": "T1, rat ACC2 (Rattus norvegicus, UniProt D3ZBE2)", "T1 construct": "purchased Huawei Pharmaceutical Co. Ltd (Shanghai, China)", "T1 sequence (D3ZBE2 17-2459)": "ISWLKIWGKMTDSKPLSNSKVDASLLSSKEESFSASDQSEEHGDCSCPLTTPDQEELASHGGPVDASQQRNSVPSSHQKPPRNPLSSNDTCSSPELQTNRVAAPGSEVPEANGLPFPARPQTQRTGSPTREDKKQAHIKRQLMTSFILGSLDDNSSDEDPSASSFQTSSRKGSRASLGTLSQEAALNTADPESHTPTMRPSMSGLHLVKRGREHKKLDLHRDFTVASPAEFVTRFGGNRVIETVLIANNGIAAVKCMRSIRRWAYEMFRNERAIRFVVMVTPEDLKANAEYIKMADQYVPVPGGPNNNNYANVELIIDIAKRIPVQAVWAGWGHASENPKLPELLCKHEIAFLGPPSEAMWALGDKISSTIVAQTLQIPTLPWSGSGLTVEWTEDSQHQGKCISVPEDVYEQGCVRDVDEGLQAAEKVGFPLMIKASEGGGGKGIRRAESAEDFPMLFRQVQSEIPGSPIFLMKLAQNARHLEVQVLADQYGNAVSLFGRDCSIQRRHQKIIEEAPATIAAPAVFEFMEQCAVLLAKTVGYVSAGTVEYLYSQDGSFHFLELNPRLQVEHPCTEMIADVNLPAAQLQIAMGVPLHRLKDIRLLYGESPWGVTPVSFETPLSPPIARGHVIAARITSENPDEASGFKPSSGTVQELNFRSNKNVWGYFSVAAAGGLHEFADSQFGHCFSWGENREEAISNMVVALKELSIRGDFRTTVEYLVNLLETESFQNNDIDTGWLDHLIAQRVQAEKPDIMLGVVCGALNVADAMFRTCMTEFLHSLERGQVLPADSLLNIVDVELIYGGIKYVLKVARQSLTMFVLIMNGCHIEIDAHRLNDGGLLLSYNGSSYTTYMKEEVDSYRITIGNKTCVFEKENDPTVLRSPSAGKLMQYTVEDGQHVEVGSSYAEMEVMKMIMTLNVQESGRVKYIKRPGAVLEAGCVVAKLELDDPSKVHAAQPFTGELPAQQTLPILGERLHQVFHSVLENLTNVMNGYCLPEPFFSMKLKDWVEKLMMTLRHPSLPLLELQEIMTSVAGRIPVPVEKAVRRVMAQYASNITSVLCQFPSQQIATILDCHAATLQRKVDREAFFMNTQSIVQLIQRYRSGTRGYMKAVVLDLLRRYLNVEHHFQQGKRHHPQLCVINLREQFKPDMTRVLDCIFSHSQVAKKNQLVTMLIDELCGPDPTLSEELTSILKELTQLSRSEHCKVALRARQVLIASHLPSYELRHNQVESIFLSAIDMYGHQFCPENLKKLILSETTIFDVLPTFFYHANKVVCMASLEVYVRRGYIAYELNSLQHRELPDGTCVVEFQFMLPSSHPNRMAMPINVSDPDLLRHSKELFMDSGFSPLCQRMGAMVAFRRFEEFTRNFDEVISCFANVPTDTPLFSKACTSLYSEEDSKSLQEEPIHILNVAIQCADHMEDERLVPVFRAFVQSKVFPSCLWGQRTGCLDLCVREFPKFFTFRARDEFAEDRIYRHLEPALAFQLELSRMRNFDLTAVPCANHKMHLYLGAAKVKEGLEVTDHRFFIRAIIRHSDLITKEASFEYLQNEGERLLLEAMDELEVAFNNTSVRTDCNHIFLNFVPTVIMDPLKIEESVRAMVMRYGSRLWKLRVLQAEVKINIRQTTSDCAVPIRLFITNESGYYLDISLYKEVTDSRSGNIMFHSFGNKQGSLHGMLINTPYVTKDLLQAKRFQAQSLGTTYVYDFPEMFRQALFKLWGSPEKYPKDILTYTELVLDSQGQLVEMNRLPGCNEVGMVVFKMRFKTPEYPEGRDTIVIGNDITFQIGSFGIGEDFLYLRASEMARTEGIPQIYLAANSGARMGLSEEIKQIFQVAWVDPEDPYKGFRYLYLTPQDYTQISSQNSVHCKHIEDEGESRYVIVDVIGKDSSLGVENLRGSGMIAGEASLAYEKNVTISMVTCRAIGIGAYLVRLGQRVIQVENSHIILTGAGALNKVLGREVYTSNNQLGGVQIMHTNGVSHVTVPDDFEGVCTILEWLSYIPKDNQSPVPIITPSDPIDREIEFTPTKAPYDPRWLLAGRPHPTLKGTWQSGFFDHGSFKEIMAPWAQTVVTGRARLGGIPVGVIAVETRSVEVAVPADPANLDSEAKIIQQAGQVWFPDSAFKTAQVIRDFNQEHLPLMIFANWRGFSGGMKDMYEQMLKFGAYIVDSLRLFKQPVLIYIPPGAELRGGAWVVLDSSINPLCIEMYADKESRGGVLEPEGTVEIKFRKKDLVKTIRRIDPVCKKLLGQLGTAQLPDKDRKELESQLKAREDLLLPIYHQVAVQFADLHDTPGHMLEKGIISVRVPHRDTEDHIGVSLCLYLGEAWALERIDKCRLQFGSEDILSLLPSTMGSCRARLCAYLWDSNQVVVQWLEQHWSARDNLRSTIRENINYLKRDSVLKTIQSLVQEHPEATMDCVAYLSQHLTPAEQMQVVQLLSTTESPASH", "test": "ACC2 in vitro assay (Kinase-Glo Plus luminescence)", "type": "biochemical", "conditions": "arithmetic means of three experiments, standard deviation in parentheses", "protocol": "(§1) To investigate the biological activities of the synthesized compounds, the in vitro inhibitory activities of these compounds against both rat ACC1 and ACC2 were evaluated according to the previous experimental method with some changes. The ACC1 and ACC2 enzymes were supplied by Huawei Pharmaceutical Co. Ltd (Shanghai, China). […] Then, the solution was diluted with buffer solution until it reached the required concentration (1 nM to 10 μM) and 5μL of the dilution was added to a 50 μL reaction mixture containing 30 mM HEPES, pH 7.4, 2 mM MgCl2, 2 mM sodium citrate, 1 mM DTT, 25 μM ATP, 16 mM NaHCO3 and 15 μM acetyl-CoA. All of the enzymatic reactions were conducted at 30 °C for 60 min. The assay was performed using Kinase-Glo Plus luminescence kinase assay kit (Beijing, China), which measures kinase activity by quantifying the amount of ATP remaining in solution following a kinase reaction. The luminescent signal from the assay […] with the amount of kinase activity. The same concentrations of DMSO were tested in parallel and used as background control. The inhibition percentage was expressed as the average value from three independent experiments."}, "rat ACC1": {"biological_target": "T2, rat ACC1 (Rattus norvegicus, UniProt P11497)", "T2 construct": "purchased Huawei Pharmaceutical Co. Ltd (Shanghai, China)", "test": "ACC1 in vitro assay (Kinase-Glo Plus luminescence)", "type": "biochemical", "conditions": "arithmetic means of three experiments, standard deviation in parentheses", "protocol": "as §1"}, "[1]": {"test_system": "human embryonic lung fibroblast (HELF) cells", "test": "In vitro cytotoxicity, MTT test", "type": "cell-based", "conditions": "HELF (WI-38) cells, 48 h incubation", "protocol": "In the cytotoxicity experiment, tetrazolium-based colorimetric assay (MTT test) was used to measure the cytotoxic effect of these selected potent compounds on normal cells. Human embryonic lung fibroblast cell line (HELF, WI-38) was purchased from the Cell Resource Center, Chinese Academy of Medical Sciences (Beijing, China). Briefly, cells (5000 per well) were collected and seeded in 96-well plates. After incubation for 24 h, cells were exposed to fresh medium containing various concentrations of test compound at 37 °C. After incubation for 48 h, 20 μL of MTT tetrazolium salt dissolved in phosphate buffered saline (PBS) at a concentration of 5 mg/mL was added to each well and incubated in a CO2 incubator for 4 h. The medium was then aspirated from each well and 150 μL of DMSO was added to dissolve formazan crystals. The absorbance of each well was measured by ELx808 Microplate Reader (BioTek, Winooski, VT, USA) at a test wavelength of 490 nm. TC50, the drug concentration which reduces the cell viability by 50% was calculated by the Logit method."}, "ACC1": {"test_system": "ACC1", "parameters": "method as in PMID 12842871, PMID 25333641", "conditions": "ACC1 from mammalia; read-out: IC50 against ACC1; cited from earlier work"}, "ACC2": {"test_system": "ACC2", "parameters": "method as in PMID 12842871, PMID 25333641", "conditions": "ACC2 from mammalia; read-out: IC50 against ACC2; cited from earlier work"}}}
{"compound": "O=C1CC2(CCN(C(=O)c3cc(-c4ccccc4Cl)nc4ccccc34)CC2)Oc2ccccc21", "note": "[12d, 1'-(2-(2-Chlorophenyl)quinoline-4-carbonyl)spiro[chroman-2,4'-piperidin]-4-one]", "values": [{"measurement": "IC50", "setting": "rat ACC2", "value": 940, "unit": "nM"}, {"measurement": "IC50", "setting": "rat ACC1", "value": "> 1000", "unit": "nM"}]}
{"compound": "COc1ccc(-c2cc(C(=O)N3CCC(N4CCC[C@@H](C(=O)N5CCN(C)CC5)C4)CC3)c3ccccc3n2)cc1", "note": "[7d, (R)-(2-(4-Methoxyphenyl)quinolin-4-yl)(3-(4-methylpiperazine-1-carbonyl)-[1,4'-bipiperidin]-1'-yl)-methanone]", "values": [{"measurement": "IC50", "setting": "rat ACC2", "value": 294, "unit": "nM"}, {"measurement": "IC50", "setting": "rat ACC1", "value": 620, "unit": "nM"}, {"measurement": "melting point", "value": "108 to 110", "unit": "°C"}, {"measurement": "TC50 (concentration which reduces the cell viability by 50%)", "setting": "[1]", "value": ">100000", "unit": "nM"}]}
{"compound": "Cc1ccccc1-c1cc(C(=O)N2CCC3(CC2)CC(=O)c2ccccc2O3)c2ccccc2n1", "note": "[12c, 1'-(2-(o-Tolyl)quinoline-4-carbonyl)spiro[chroman-2,4'-piperidin]-4-one]", "values": [{"measurement": "IC50", "setting": "rat ACC2", "value": "> 1000", "unit": "nM"}, {"measurement": "IC50", "setting": "rat ACC1", "value": "> 1000", "unit": "nM"}]}
{"compound": "COc1ccc(-c2cc(C(=O)N3CCC(N4CCC[C@@H](C(=O)N5CCOCC5)C4)CC3)c3ccccc3n2)cc1", "note": "[7a, (R)-(2-(4-Methoxyphenyl)quinolin-4-yl)(3-(morpholine-4-carbonyl)-[1,4′-bipiperidin]-1′-yl)methanone]", "values": [{"measurement": "IC50", "setting": "rat ACC2", "value": 172, "unit": "nM"}, {"measurement": "IC50", "setting": "rat ACC1", "value": 189, "unit": "nM"}, {"measurement": "TC50 (concentration which reduces the cell viability by 50%)", "setting": "[1]", "value": ">100000", "unit": "nM"}]}
{"compound": "COc1ccc(-c2cc(C(=O)N3CCC4(CC3)CC(=O)c3ccccc3O4)c3ccccc3n2)cc1OC", "note": "[12b, 1'-(2-(3,4-Dimethoxyphenyl)quinoline-4-carbonyl)spiro[chroman-2,4'-piperidin]-4-one]", "values": [{"measurement": "IC50", "setting": "rat ACC2", "value": 820, "unit": "nM"}, {"measurement": "IC50", "setting": "rat ACC1", "value": 760, "unit": "nM"}, {"measurement": "TC50 (concentration which reduces the cell viability by 50%)", "setting": "[1]", "value": ">100000", "unit": "nM"}]}
{"compound": "COc1ccc(-c2cc(C(=O)N3CCC(N4CCC[C@@H](C(=O)N5CCCC5)C4)CC3)c3ccccc3n2)cc1", "note": "[7e, (R)-(2-(4-Methoxyphenyl)quinolin-4-yl)(3-(pyrrolidine-1-carbonyl)-[1,4'-bipiperidin]-1'-yl)methanone]", "values": [{"measurement": "IC50", "setting": "rat ACC2", "value": 382, "unit": "nM"}, {"measurement": "IC50", "setting": "rat ACC1", "value": 750, "unit": "nM"}, {"measurement": "TC50 (concentration which reduces the cell viability by 50%)", "setting": "[1]", "value": ">100000", "unit": "nM"}]}
{"compound": "O=C1CC2(CCN(C(=O)c3cc(Cl)nc4ccccc34)CC2)Oc2ccccc21", "note": "[12f, 1'-(2-Chloroquinoline-4-carbonyl)spiro[chroman-2,4'-piperidin]-4-one]", "values": [{"measurement": "IC50", "setting": "rat ACC2", "value": "> 1000", "unit": "nM"}, {"measurement": "IC50", "setting": "rat ACC1", "value": "> 1000", "unit": "nM"}]}
{"compound": "COc1ccc(-c2cc(C(=O)N3CCC(N4CCC[C@@H](C(=O)N5CCCCC5)C4)CC3)c3ccccc3n2)cc1", "note": "[7f, (R)-(2-(4-Methoxyphenyl)quinolin-4-yl)(3-(piperidine-1-carbonyl)-[1,4′-bipiperidin]-1′-yl)methanone]", "values": [{"measurement": "IC50", "setting": "rat ACC2", "value": 920, "unit": "nM"}, {"measurement": "IC50", "setting": "rat ACC1", "value": "> 1000", "unit": "nM"}, {"measurement": "melting point", "value": "89 to 91", "unit": "°C"}]}
{"compound": "O=C(c1cc(-c2ccccc2Cl)nc2ccccc12)N1CCC(N2CCC[C@@H](C(=O)N3CCOCC3)C2)CC1", "note": "[7i, (R)-(2-(2-Chlorophenyl)quinolin-4-yl)(3-(morpholine-4-carbonyl)-[1,4'-bipiperidin]-1'-yl)methanone]", "values": [{"measurement": "IC50", "setting": "rat ACC2", "value": "> 1000", "unit": "nM"}, {"measurement": "IC50", "setting": "rat ACC1", "value": "> 1000", "unit": "nM"}]}
{"compound": "CCN(CC)C(=O)[C@@H]1CCCN(C2CCN(C(=O)c3cc(-c4ccc(OC)cc4)nc4ccccc34)CC2)C1", "note": "[7c, (R)-N,N-Diethyl-1'-(2-(4-methoxyphenyl)quinoline-4-carbonyl)-[1,4'-bipiperidine]-3-carboxamide]", "values": [{"measurement": "IC50", "setting": "rat ACC2", "value": 205, "unit": "nM"}, {"measurement": "IC50", "setting": "rat ACC1", "value": 940, "unit": "nM"}, {"measurement": "melting point", "value": "101 to 102", "unit": "°C"}, {"measurement": "TC50 (concentration which reduces the cell viability by 50%)", "setting": "[1]", "value": ">100000", "unit": "nM"}]}
{"compound": "O=C(c1cc(-c2ccccc2)nc2ccccc12)N1CCC(N2CCC[C@@H](C(=O)N3CCOCC3)C2)CC1", "note": "[7g, (R)-(3-(Morpholino-4-carbonyl)-[1,4'-bipiperidin]-1'-yl)(2-phenylquinolin-4-yl)methanone]", "values": [{"measurement": "IC50", "setting": "rat ACC2", "value": 810, "unit": "nM"}, {"measurement": "IC50", "setting": "rat ACC1", "value": 860, "unit": "nM"}, {"measurement": "melting point", "value": "92 to 93", "unit": "°C"}, {"measurement": "TC50 (concentration which reduces the cell viability by 50%)", "setting": "[1]", "value": ">100000", "unit": "nM"}]}
{"compound": "O=C1CC2(CCN(C(=O)c3cc(N4CCOCC4)nc4ccccc34)CC2)Oc2ccccc21", "note": "[12g, 1'-(2-Morpholinoquinoline-4-carbonyl)spiro[chroman-2,4'-piperidin]-4-one]", "values": [{"measurement": "IC50", "setting": "rat ACC2", "value": "> 1000", "unit": "nM"}, {"measurement": "IC50", "setting": "rat ACC1", "value": "> 1000", "unit": "nM"}, {"measurement": "melting point", "value": "138 to 140", "unit": "°C"}]}
{"compound": "COc1ccc(-c2cc(C(=O)N3CCC(N4CCC[C@@H](C(=O)N(C)Cc5ccccc5)C4)CC3)c3ccccc3n2)cc1", "note": "[7b, (R)-N-Benzyl-1'-(2-(4-methoxyphenyl)quinoline-4-carbonyl)-N-methyl-[1,4'-bipiperidine]-3-carbox-amide]", "values": [{"measurement": "IC50", "setting": "rat ACC2", "value": 360, "unit": "nM"}, {"measurement": "IC50", "setting": "rat ACC1", "value": 750, "unit": "nM"}, {"measurement": "melting point", "value": "90 to 92", "unit": "°C"}, {"measurement": "TC50 (concentration which reduces the cell viability by 50%)", "setting": "[1]", "value": ">100000", "unit": "nM"}]}
{"compound": "COc1ccc(-c2cc(C(=O)N3CCC4(CC3)CC(=O)c3ccccc3O4)c3ccccc3n2)cc1", "note": "[12a, 1'-(2-(4-Methoxyphenyl)quinoline-4-carbonyl)spiro[chroman-2,4'-piperidin]-4-one]", "values": [{"measurement": "IC50", "setting": "rat ACC2", "value": 650, "unit": "nM"}, {"measurement": "IC50", "setting": "rat ACC1", "value": 600, "unit": "nM"}, {"measurement": "TC50 (concentration which reduces the cell viability by 50%)", "setting": "[1]", "value": ">100000", "unit": "nM"}]}
{"compound": "O=C1CC2(CCN(C(=O)c3cc(-c4ccc(Cl)cc4)nc4ccccc34)CC2)Oc2ccccc21", "note": "[12e, 1'-(2-(4-Chlorophenyl)quinoline-4-carbonyl)spiro[chroman-2,4'-piperidin]-4-one]", "values": [{"measurement": "IC50", "setting": "rat ACC2", "value": "> 1000", "unit": "nM"}, {"measurement": "IC50", "setting": "rat ACC1", "value": "> 1000", "unit": "nM"}]}
{"compound": "O=C(c1c2ccccc2cc2ccccc12)N1CCC(N2CCC[C@@H](C(=O)N3CCOCC3)C2)CC1", "note": "[CP-640186, reference compound]", "values": [{"measurement": "IC50", "setting": "ACC1", "value": "~50", "unit": "nM"}, {"measurement": "IC50", "setting": "ACC2", "value": "~50", "unit": "nM"}, {"measurement": "IC50", "setting": "rat ACC2", "value": 185, "unit": "nM"}, {"measurement": "TC50 (concentration which reduces the cell viability by 50%)", "setting": "[1]", "value": ">100000", "unit": "nM"}]}
{"compound": "O=C(c1cc(-c2ccc(Cl)cc2)nc2ccccc12)N1CCC(N2CCC[C@@H](C(=O)N3CCOCC3)C2)CC1", "note": "[7h, (R)-(2-(4-Chlorophenyl)quinolin-4-yl)(3-(morpholine-4-carbonyl)-[1,4'-bipiperidin]-1'-yl)methanone]", "values": [{"measurement": "IC50", "setting": "rat ACC2", "value": "> 1000", "unit": "nM"}, {"measurement": "IC50", "setting": "rat ACC1", "value": "> 1000", "unit": "nM"}, {"measurement": "melting point", "value": "87 to 89", "unit": "°C"}]}
